This passage reports IC50 results from patent US20230312556A1, “ARYLAMIDE COMPOUND, PHARMACEUTICAL COMPOSITION COMPRISING SAME, AND PREPARATION METHOD THEREFOR AND USE THEREOF” (SICHUAN KELUN-BIOTECH BIOPHARMACEUTICAL CO., LTD., priority 2020, published 2023).

For orientation: IC50 means the concentration needed to halve the response being measured. The low end stands for greater potency, the high end for weaker potency.

This assay concerns the target mutant BRAF enzyme (BRAF-V600E) (Homo sapiens (Human), UniProt P15056, V600E). The experiment in a line: RAF inhibition assay (TB-PMAP2K1 kit), BRAF-V600E. The class given is biochemical. The following applies: FLUORESCEIN-MAP2K1 substrate, 60 min reaction.

Sequence of mutant BRAF enzyme (BRAF-V600E) (P15056 whole entry V600E): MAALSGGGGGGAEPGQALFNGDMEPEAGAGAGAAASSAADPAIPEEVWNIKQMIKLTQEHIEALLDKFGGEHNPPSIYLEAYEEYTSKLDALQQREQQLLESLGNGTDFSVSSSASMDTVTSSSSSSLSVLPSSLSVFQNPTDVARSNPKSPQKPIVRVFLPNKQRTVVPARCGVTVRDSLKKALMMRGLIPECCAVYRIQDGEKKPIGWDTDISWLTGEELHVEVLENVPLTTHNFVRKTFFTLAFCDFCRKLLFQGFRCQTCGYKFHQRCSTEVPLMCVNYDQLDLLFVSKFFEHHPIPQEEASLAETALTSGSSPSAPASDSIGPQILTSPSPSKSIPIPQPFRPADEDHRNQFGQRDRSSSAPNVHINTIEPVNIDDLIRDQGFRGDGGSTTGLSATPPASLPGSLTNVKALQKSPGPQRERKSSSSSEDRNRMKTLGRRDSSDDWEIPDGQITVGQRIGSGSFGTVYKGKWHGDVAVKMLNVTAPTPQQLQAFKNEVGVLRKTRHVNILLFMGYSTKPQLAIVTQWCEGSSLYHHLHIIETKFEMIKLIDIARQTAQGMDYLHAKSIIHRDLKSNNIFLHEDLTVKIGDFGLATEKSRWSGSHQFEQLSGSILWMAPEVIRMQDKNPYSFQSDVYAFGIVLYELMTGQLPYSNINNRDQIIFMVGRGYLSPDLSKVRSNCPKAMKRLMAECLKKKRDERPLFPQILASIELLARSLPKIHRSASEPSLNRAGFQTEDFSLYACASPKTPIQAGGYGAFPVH

With `Cc1ccc2c(Cc3ccc(N(C)C)nc3)nccc2c1NC(=O)c1csc2c(N)ncnc12` [Compound 36, 4-amino-N-(1-((6-(dimethylamino)pyridin-3-yl)methyl)-6-methylisoquinolin-5-yl)thieno[3,2-d]pyrimidine-7-carboxamide], the IC50 amounted to 22.5 ± 4.41 nM. In the case of `Cc1ccc2c(Nc3cccc(Cl)c3F)nccc2c1NC(=O)c1cncc2c(N)ncnc12` [Compound 69, 4-amino-N-(1-((3-chloro-2-fluorophenyl)amino)-6-methylisoquinolin-5-yl)pyrido[4,3-d]pyrimidine-8-carboxamide] it was 4.3 ± 1.14 nM.

Consider `Cc1ccc2c(Nc3cc(Br)ccc3F)nccc2c1NC(=O)c1cccc2c(N)ncnc12` [Compound 91, 4-amino-N-(1-((5-bromo-2-fluorophenyl)amino)-6-methylisoquinolin-5-yl)quinazoline-8-carboxamide], for which the concentration for half-maximal inhibition (IC50) is 20.9 ± 2.81 nM.

Take `Cc1ccc(Nc2nccc3c(NC(=O)c4cccc5c(N)ncnc45)c(C)ccc23)c(F)c1` [Compound 88, 4-amino-N-(1-((2-fluoro-4-methylphenyl)amino)-6-methylisoquinolin-5-yl)quinazoline-8-carboxamide]: the midpoint of inhibition, the IC50, lay at 11.7 ± 0.99 nM. The molecule `Cc1ccc2c(Nc3ccc4c(c3)CN(C)CC4)nccc2c1NC(=O)c1cccc2c(N)ncnc12` [Compound 82, 4-amino-N-(6-methyl-1-((2-methyl-1,2,3,4-tetrahydroisoquinolin-7-yl)amino)isoquinolin-5-yl)quinazoline-8-carboxamide] gave a 50% inhibitory concentration (IC50) of 13.2 ± 1.69 nM.

The molecule `Cc1ccc2c(Nc3cccc(Cl)c3F)nccc2c1NC(=O)c1cc(N2CCN(C)CC2)cc2c(N)ncnc12` [Compound 54, 4-amino-N-(1-((3-chloro-2-fluorophenyl)amino)-6-methylisoquinolin-5-yl)-6-(4-methylpiperazin-1-yl)quinazoline-8-carboxamide] registered a concentration for half-maximal inhibition (IC50) of 11 ± 2.02 nM. In the case of `Cc1ccc2c(C(O)c3ccc(C(F)(F)F)cc3)nccc2c1NC(=O)c1csc2c(N)ncnc12` (stereo not drawn) [Compound 33, 4-amino-N-(1-(hydroxy(4-(trifluoromethyl)phenyl)methyl)-6-methylisoquinolin-5-yl)thieno[3,2-d]pyrimidine-7-carboxamide] it was 33.5 ± 6.13 nM.

In turn, `Cc1ccc2c(Nc3cccc(Cl)c3F)nccc2c1NC(=O)c1nccc2c(N)ncnc12` [Compound 66, 4-amino-N-(1-((3-chloro-2-fluorophenyl)amino)-6-methylisoquinolin-5-yl)pyrido[3,4-d]pyrimidine-8-carboxamide] came in with an IC50 of 2.57 ± 0.32 nM. Molecule `Cc1ccc2c(Nc3cccc(Cl)c3F)nccc2c1NC(=O)c1cc(OCCO)cc2c(N)ncnc12` [Compound 86, 4-amino-N-(1-((3-chloro-2-fluorophenyl)amino)-6-methylisoquinolin-5-yl)-6-(2-hydroxyethoxy)quinazoline-8-carboxamide] returned an IC50 of 11.9 ± 1.3 nM. The same measure for `Cc1ccc2c(C(=O)c3ccc(Cl)cc3F)nccc2c1NC(=O)c1csc2c(N)ncnc12` [Compound 27, 4-amino-N-(1-(4-chloro-2-fluorobenzoyl)-6-methylisoquinolin-5-yl)thieno[3,2-d]pyrimidine-7-carboxamide]: 6.48 ± 0.93 nM; for `COc1ccc(Nc2nccc3c(NC(=O)c4cccc5c(N)ncnc45)c(C)ccc23)cn1` [Compound 75, 4-amino-N-(1-((6-methoxypyridin-3-yl)amino)-6-methylisoquinolin-5-yl)quinazoline-8-carboxamide]: 5.58 ± 0.77 nM; for `Cc1ccc2c(Nc3cccc(Cl)c3F)ncnc2c1NC(=O)c1cccc2c(N)ncnc12` [Compound 102, 4-amino-N-(4-((3-chloro-2-fluorophenyl)amino)-7-methylquinazolin-8-yl)quinazoline-8-carboxamide]: 12.4 ± 3.05 nM. For the molecule `Cc1ccc2c(Nc3ccc(Cl)c(CN(C)C)c3)nccc2c1NC(=O)c1cccc2c(N)ncnc12` [Compound 64, 4-amino-N-(1-((4-chloro-3-((dimethylamino)methyl)phenyl)amino)-6-methylisoquinolin-5-yl)quinazoline-8-carboxamide], half-maximal inhibition (IC50) required 13 ± 3.58 nM. `Cc1ccc2c(Cc3cccc(Cl)c3)nccc2c1NC(=O)c1csc2c(N)ncnc12` [Compound 16, 4-amino-N-(1-(3-chlorobenzyl)-6-methylisoquinolin-5-yl)thieno[3,2-d]pyrimidine-7-carboxamide] showed an IC50 of 6.27 ± 1.15 nM.

As for `COc1ccc(C(O)c2nccc3c(NC(=O)c4csc5c(N)ncnc45)c(C)ccc23)cc1` (stereo not drawn) [Compound 6, 4-amino-N-(1-(hydroxy(4-methoxyphenyl)methyl)-6-methylisoquinolin-5-yl)thieno[3,2-d]pyrimidine-7-carboxamide], half-maximal inhibition (IC50) required 25.2 ± 4.08 nM. The same measure for `Cc1ccc2c(Cc3ccccc3Cl)nccc2c1NC(=O)c1csc2c(N)ncnc12` [Compound 10, 4-amino-N-(1-(2-chlorobenzyl)-6-methylisoquinolin-5-yl)thieno[3,2-d]pyrimidine-7-carboxamide]: 4.73 ± 1.82 nM. In the case of `Cc1ccc2c(Nc3cc(Cl)ccc3F)nccc2c1NC(=O)c1cc(F)cc2c(N)ncnc12` [Compound 84, 4-amino-N-(1-((5-chloro-2-fluorophenyl)amino)-6-methylisoquinolin-5-yl)-6-fluoroquinazoline-8-carboxamide] it was 23.8 ± 4.41 nM; in that of `CC(=O)c1ccc(Nc2nccc3c(NC(=O)c4cccc5c(N)ncnc45)c(C)ccc23)cc1` [Compound 63, N-(1-((4-acetylphenyl)amino)-6-methylisoquinolin-5-yl)-4-aminoquinazoline-8-carboxamide], 5.39 ± 0.8 nM; in that of `Cc1ccc2c(C(O)c3cccc(Cl)c3)nccc2c1NC(=O)c1csc2c(N)ncnc12` (stereo not drawn) [Compound 17, 4-amino-N-(1-((3-chlorophenyl)(hydroxy)methyl)-6-methylisoquinolin-5-yl)thieno[3,2-d]pyrimidine-7-carboxamide], 5.73 ± 1.05 nM. The same measure for `Cc1ccc2c(Nc3cccc(Cl)c3F)nccc2c1NC(=O)c1cn(C)c2c(N)ncnc12` [Compound 101, 4-amino-N-(1-((3-chloro-2-fluorophenyl)amino)-6-methylisoquinolin-5-yl)-5-methyl-5H-pyrrolo[3,2-d]pyrimidine-7-carboxamide]: 5.58 ± 0.57 nM; for `Cc1ccc2c(Nc3cccc(Cl)c3F)nccc2c1NC(=O)c1cc(OCCN2CCOCC2)cc2c(N)ncnc12` [Compound 79, 4-amino-N-(1-((3-chloro-2-fluorophenyl)amino)-6-methylisoquinolin-5-yl)-6-(2-morpholinoethoxy)quinazoline-8-carboxamide]: 14.7 ± 1.66 nM; for `Cc1ccc2c(Nc3c(F)c(F)cc(F)c3F)nccc2c1NC(=O)c1cccc2c(N)ncnc12` [Compound 95, 4-amino-N-(6-methyl-1-((2,3,5,6-tetrafluorophenyl)amino)isoquinolin-5-yl)quinazoline-8-carboxamide]: 13.9 ± 1.48 nM. As for `COc1ccc(Nc2nccc3c(NC(=O)c4cccc5c(N)ncnc45)c(C)ccc23)cc1OC` [Compound 68, 4-amino-N-(1-((3,4-dimethoxyphenyl)amino)-6-methylisoquinolin-5-yl)quinazoline-8-carboxamide], half-maximal inhibition (IC50) was put at 15 ± 2.65 nM.

`Cc1ccc2c(Cc3ccccc3F)nccc2c1NC(=O)c1csc2c(N)ncnc12` [Compound 2, 4-amino-N-(1-(2-fluorobenzyl)-6-methylisoquinolin-5-yl)thieno[3,2-d]pyrimidine-7-carboxamide] had a half-maximal inhibitory concentration (IC50) of 35.6 ± 2.4 nM. In the case of `Cc1ccc2c(Nc3cccc(C(F)(F)F)c3)nccc2c1NC(=O)c1cccc2c(N)nccc12` [Comparative Example 2, 1-amino-N-(6-methyl-1-((3-(trifluoromethyl)phenyl)amino)isoquinolin-5-yl)isoquinoline-5-carboxamide, reference compound] it was above 1000 nM. The molecule `Cc1ccc2c(C(O)c3ccc(Cl)cc3)nccc2c1NC(=O)c1csc2c(N)ncnc12` (stereo not drawn) [Compound 20, 4-amino-N-(1-((4-chlorophenyl)(hydroxy)methyl)-6-methylisoquinolin-5-yl)thieno[3,2-d]pyrimidine-7-carboxamide] yielded an IC50 of 10.7 ± 1.93 nM.

For the molecule `Cc1ccc2c(Cc3ccc(Cl)c(CN(C)C)c3)nccc2c1NC(=O)c1csc2c(N)ncnc12` [Compound 42, 4-amino-N-(1-(4-chloro-3-((dimethylamino)methyl)benzyl)-6-methylisoquinolin-5-yl)thieno[3,2-d]pyrimidine-7-carboxamide], the 50% inhibitory concentration (IC50) is 35.8 ± 9.02 nM. In the case of `Cc1ccc2c(Nc3ccc4c(c3)OCCO4)nccc2c1NC(=O)c1cccc2c(N)ncnc12` [Compound 77, 4-amino-N-(1-((2,3-dihydrobenzo[b][1,4]dioxin-6-yl)amino)-6-methylisoquinolin-5-yl)quinazoline-8-carboxamide] it was 7.9 ± 0.73 nM; in that of `Cc1ccc2c(Nc3cc(F)ccc3F)nccc2c1NC(=O)c1cccc2c(N)ncnc12` [Compound 72, 4-amino-N-(1-((2,5-difluorophenyl)amino)-6-methylisoquinolin-5-yl)quinazoline-8-carboxamide], 6.9 ± 1.3 nM. The same measure for `Cc1ccc2c(Cc3cccc(Cl)c3F)nccc2c1NC(=O)c1csc2c(N)ncnc12` [Compound 8, 4-amino-N-(1-(3-chloro-2-fluorobenzyl)-6-methylisoquinolin-5-yl)thieno[3,2-d]pyrimidine-7-carboxamide]: 8.63 ± 0.99 nM; for `COc1ccc(Nc2nccc3c(NC(=O)c4cccc5c(N)ncnc45)c(C)ccc23)cc1` [Compound 57, 4-amino-N-(1-((4-methoxyphenyl)amino)-6-methylisoquinolin-5-yl)quinazoline-8-carboxamide]: 2.89 ± 0.34 nM; for `Cc1ccc2c(Nc3ccc(CN(C)C)c(C(F)(F)F)c3)nccc2c1NC(=O)c1cnc2c(N)ncnn12` [Compound 62, 4-amino-N-(1-((4-((dimethylamino)methyl)-3-(trifluoromethyl)phenyl)amino)-6-methylisoquinolin-5-yl)imidazo[2,1-f][1,2,4]triazine-7-carboxamide]: 19.7 ± 4.67 nM. For the molecule `Cc1ccc2c(Nc3ccnc(C(F)(F)F)c3)nccc2c1NC(=O)c1cccc2c(N)ncnc12` [Compound 71, 4-amino-N-(6-methyl-1-((2-(trifluoromethyl)pyridin-4-yl)amino)isoquinolin-5-yl)quinazoline-8-carboxamide], it took 23 ± 1.76 nM to reach half-maximal inhibition (IC50).
